System: 777334-354-R2-J4-PDC tumor spheroids with HUVEC/MSC, viability
Test: Anticancer human tumor 777334-354-R2-J4-PDC patient-derived pancreatic adenocarcinoma cell line growth inhibition [GQUAD]
Conditions: for IC50: curve of first compound; for viability, T/C: stronger effect = lower value
Summary of the method: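 Multi-cell-type spheroids of tumor cells with HUVEC and mesenchymal stem cells, treated with drug combinations. Concentrations descend in half-log steps from near clinical Cmax, or from 10 microM where Cmax is unknown; viability read-out.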

[1] = second compound 0.0316 µM, first compound 0.0316 µM
[2] = second compound 0.0316 µM, first compound 0.1 µM
[3] = second compound 0.0316 µM, first compound 0.316 µM
[4] = second compound 0.0316 µM, first compound 1 µM
[5] = second compound 0.0316 µM, first compound 3.16 µM
[6] = second compound 0.0316 µM, first compound 10 µM
[7] = second compound 0.1 µM, first compound 0.0316 µM
[8] = second compound 0.1 µM, first compound 0.1 µM
[9] = second compound 0.1 µM, first compound 0.316 µM
[10] = second compound 0.1 µM, first compound 1 µM
[11] = second compound 0.1 µM, first compound 3.16 µM
[12] = second compound 0.1 µM, first compound 10 µM
[13] = second compound 0.316 µM, first compound 0.0316 µM
[14] = second compound 0.316 µM, first compound 0.1 µM
[15] = second compound 0.316 µM, first compound 0.316 µM
[16] = second compound 0.316 µM, first compound 1 µM
[17] = second compound 0.316 µM, first compound 3.16 µM
[18] = second compound 0.316 µM, first compound 10 µM
[19] = second compound 1 µM, first compound 0.0316 µM
[20] = second compound 1 µM, first compound 0.1 µM
[21] = second compound 1 µM, first compound 0.316 µM
[22] = second compound 1 µM, first compound 1 µM
[23] = second compound 1 µM, first compound 3.16 µM
[24] = second compound 1 µM, first compound 10 µM
[25] = second compound 3.16 µM, first compound 0.0316 µM
[26] = second compound 3.16 µM, first compound 0.1 µM
[27] = second compound 3.16 µM, first compound 0.316 µM
[28] = second compound 3.16 µM, first compound 1 µM
[29] = second compound 3.16 µM, first compound 3.16 µM
[30] = second compound 3.16 µM, first compound 10 µM
[31] = second compound 10 µM, first compound 0.0316 µM
[32] = second compound 10 µM, first compound 0.1 µM
[33] = second compound 10 µM, first compound 0.316 µM
[34] = second compound 10 µM, first compound 1 µM
[35] = second compound 10 µM, first compound 3.16 µM
[36] = second compound 10 µM, first compound 10 µM
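Note: spheroids exposed to compounds for 7 days before readout.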

CC(C)n1c(=O)n(C)c2cnc3cc(F)c(-c4ccc(OCCCN5CCCCC5)nc4)cc3c21 + CN(C)c1ccc(Nc2c3ccc(NC(=O)CCN4CCCC4)cc3nc3cc(NC(=O)CCN4CCCC4)ccc23)cc1
IC50 (second compound 0.0316 µM): > 10 µM | IC50 (second compound 0.1 µM): > 10 µM | IC50 (second compound 0.316 µM): > 10 µM | IC50 (second compound 1 µM): > 10 µM | IC50 (second compound 3.16 µM): > 10 µM | IC50 (second compound 10 µM): 1.65 µM | viability, T/C [1]: 103% | viability, T/C [2]: 94.4% | viability, T/C [3]: 99.3% | viability, T/C [4]: 107% | viability, T/C [5]: 115% | viability, T/C [6]: 92.3% | viability, T/C [7]: 94% | viability, T/C [8]: 93% | viability, T/C [9]: 115% | viability, T/C [10]: 104% | viability, T/C [11]: 113% | viability, T/C [12]: 93.4% | viability, T/C [13]: 98.2% | viability, T/C [14]: 111% | viability, T/C [15]: 100% | viability, T/C [16]: 107% | viability, T/C [17]: 105% | viability, T/C [18]: 77.5% | viability, T/C [19]: 81.7% | viability, T/C [20]: 85.6% | viability, T/C [21]: 101% | viability, T/C [22]: 90% | viability, T/C [23]: 103% | viability, T/C [24]: 75.2% | viability, T/C [25]: 84.9% | viability, T/C [26]: 75.3% | viability, T/C [27]: 85.6% | viability, T/C [28]: 83.2% | viability, T/C [29]: 91.8% | viability, T/C [30]: 62.1% | viability, T/C [31]: 81.5% | viability, T/C [32]: 75% | viability, T/C [33]: 61.4% | viability, T/C [34]: 58.6% | viability, T/C [35]: 42.2% | viability, T/C [36]: 31.7%

CC1COCCN1c1cc(C2(S(C)(=N)=O)CC2)nc(-c2ccnc3[nH]ccc23)n1 (stereo not drawn) + CN(C)c1ccc(Nc2c3ccc(NC(=O)CCN4CCCC4)cc3nc3cc(NC(=O)CCN4CCCC4)ccc23)cc1
IC50 (second compound 0.0316 µM): > 10 µM | IC50 (second compound 0.1 µM): > 10 µM | IC50 (second compound 0.316 µM): > 10 µM | IC50 (second compound 1 µM): 8.96 µM | IC50 (second compound 3.16 µM): 7.8 µM | IC50 (second compound 10 µM): 8.89 µM | viability, T/C [1]: 89% | viability, T/C [2]: 85.8% | viability, T/C [3]: 98.5% | viability, T/C [4]: 86.8% | viability, T/C [5]: 79.3% | viability, T/C [6]: 58.3% | viability, T/C [7]: 107% | viability, T/C [8]: 84.6% | viability, T/C [9]: 98.2% | viability, T/C [10]: 95.2% | viability, T/C [11]: 79.7% | viability, T/C [12]: 57.1% | viability, T/C [13]: 92.5% | viability, T/C [14]: 95.9% | viability, T/C [15]: 100% | viability, T/C [16]: 82.9% | viability, T/C [17]: 85.2% | viability, T/C [18]: 50.5% | viability, T/C [19]: 90.5% | viability, T/C [20]: 79.8% | viability, T/C [21]: 74.7% | viability, T/C [22]: 83.9% | viability, T/C [23]: 79.5% | viability, T/C [24]: 46.9% | viability, T/C [25]: 80.5% | viability, T/C [26]: 82.6% | viability, T/C [27]: 86.8% | viability, T/C [28]: 78.6% | viability, T/C [29]: 67.7% | viability, T/C [30]: 45.1% | viability, T/C [31]: 82.3% | viability, T/C [32]: 78.3% | viability, T/C [33]: 72.7% | viability, T/C [34]: 67.7% | viability, T/C [35]: 65.2% | viability, T/C [36]: 47.5%

COc1ccc([C@@H](O)c2cc(-c3ncnc4cc(N5CCOCC5)ccc34)c(F)cc2Cl)nn1 + CN(C)c1ccc(Nc2c3ccc(NC(=O)CCN4CCCC4)cc3nc3cc(NC(=O)CCN4CCCC4)ccc23)cc1
IC50 (second compound 0.0316 µM): 3.58 µM | IC50 (second compound 0.1 µM): 3.71 µM | IC50 (second compound 0.316 µM): 2.97 µM | IC50 (second compound 1 µM): 2.71 µM | IC50 (second compound 3.16 µM): 1.86 µM | IC50 (second compound 10 µM): 1.12 µM | viability, T/C [1]: 88.8% | viability, T/C [2]: 88.9% | viability, T/C [3]: 84.3% | viability, T/C [4]: 72.4% | viability, T/C [5]: 53.6% | viability, T/C [6]: 23.9% | viability, T/C [7]: 96.6% | viability, T/C [8]: 81.3% | viability, T/C [9]: 96.2% | viability, T/C [10]: 68.8% | viability, T/C [11]: 55.5% | viability, T/C [12]: 26.9% | viability, T/C [13]: 96.8% | viability, T/C [14]: 83.2% | viability, T/C [15]: 79.4% | viability, T/C [16]: 68.7% | viability, T/C [17]: 48.9% | viability, T/C [18]: 24.5% | viability, T/C [19]: 86.2% | viability, T/C [20]: 86.4% | viability, T/C [21]: 76.6% | viability, T/C [22]: 73.1% | viability, T/C [23]: 45.7% | viability, T/C [24]: 23.1% | viability, T/C [25]: 72.5% | viability, T/C [26]: 81.2% | viability, T/C [27]: 73.3% | viability, T/C [28]: 57.8% | viability, T/C [29]: 42.5% | viability, T/C [30]: 20.6% | viability, T/C [31]: 81.3% | viability, T/C [32]: 71.8% | viability, T/C [33]: 69.5% | viability, T/C [34]: 51% | viability, T/C [35]: 32.9% | viability, T/C [36]: 17.4%

O=C(c1cc(Cc2n[nH]c(=O)c3ccccc23)ccc1F)N1CCN(C(=O)C2CC2)CC1 + CN(C)c1ccc(Nc2c3ccc(NC(=O)CCN4CCCC4)cc3nc3cc(NC(=O)CCN4CCCC4)ccc23)cc1
IC50 (second compound 0.0316 µM): > 10 µM | IC50 (second compound 0.1 µM): > 10 µM | IC50 (second compound 0.316 µM): > 10 µM | IC50 (second compound 1 µM): > 10 µM | IC50 (second compound 3.16 µM): > 10 µM | IC50 (second compound 10 µM): > 10 µM | viability, T/C [1]: 97.1% | viability, T/C [2]: 104% | viability, T/C [3]: 104% | viability, T/C [4]: 86% | viability, T/C [5]: 84% | viability, T/C [6]: 74.3% | viability, T/C [7]: 88% | viability, T/C [8]: 82.6% | viability, T/C [9]: 93.5% | viability, T/C [10]: 92.1% | viability, T/C [11]: 88.5% | viability, T/C [12]: 72.5% | viability, T/C [13]: 80.6% | viability, T/C [14]: 94.9% | viability, T/C [15]: 97.2% | viability, T/C [16]: 81% | viability, T/C [17]: 94.1% | viability, T/C [18]: 66.7% | viability, T/C [19]: 84.9% | viability, T/C [20]: 89.8% | viability, T/C [21]: 86.7% | viability, T/C [22]: 86.2% | viability, T/C [23]: 80.4% | viability, T/C [24]: 65.4% | viability, T/C [25]: 79.7% | viability, T/C [26]: 81.7% | viability, T/C [27]: 68.3% | viability, T/C [28]: 76.2% | viability, T/C [29]: 82.6% | viability, T/C [30]: 69.1% | viability, T/C [31]: 64.7% | viability, T/C [32]: 76.7% | viability, T/C [33]: 76.4% | viability, T/C [34]: 81% | viability, T/C [35]: 71% | viability, T/C [36]: 66.9%
